Drawing on patent US7408067B2, “Aza-cyclic compounds as modulators of acetylcholine receptors” (Merck + Co., Inc., priority 2002, dated 2008), this text covers melting point for 7 compounds.

Where a name gives a salt, the structure may show the parent alone. Bounds are passed on as bounds.

As to `CN1CCC(Sc2ccc3[nH]c(=O)[nH]c(=O)c3c2)CC1` [Example 17, 6-[(1-methyl-4-piperidinyl)sulfanyl]-2,4(1H,3H)-quinazolinedione], the melting point was greater than 260 °C. As for `CN1CCC(Sc2ccc3[nH]c(=O)n(C)c3c2)CC1` [Example 18, 1-Methyl-6-[(1-methyl-4-piperidinyl)sulfanyl]-1,3-dihydro-2H-benzimidazol-2-one], the melting point lay within 196.4 to 197.6 °C. Then `CN1CCC(Sc2ccc(N)cc2)CC1` (as salt: hydrochloride) [Example 5, 4-(1-methylpiperidin-4-yl)thiophenylamine], with 96 to 98 °C. `CC(=O)Nc1ccc(SC2CCN(C)CC2)cc1` (as salt: salt) [Example 7, N-{4-[(1-methylpiperidin-4-yl)thio]phenyl}acetamide]: the melting point is 199 to 201 °C.

Regarding `CN1CCC(Sc2ccc3[nH]c(=O)[nH]c3c2)CC1` [Example 16, 5-[(1-methyl-4-piperidinyl)sulfanyl]-1,3-dihydro-2H-benzimidazol-2-one], the melting point was in the range of 213.8 to 214.7 °C. For the compound `CN1CCC(Sc2cc3c(cc2Cl)[nH]c(=O)n3C)CC1` [Example 20, 5-Chloro-1-methyl-6-[(1-methyl-4-piperidinyl)sulfanyl]-1,3-dihydro-2H-benzimidazol-2-one], the melting point was 210.2 to 211.9 °C.

As to `CN1CCC(Sc2ccc3[nH]c(=O)n(C)c(=O)c3c2)CC1` [Example 21, 3-Methyl-6-[(1-methyl-4-piperidinyl)sulfanyl]-2,4(1H,3H)-quinazolinedione], the melting point was 200.8 to 202.6 °C.
